# Assay results: patent US20110124644A1, “METHODS OF DIAGNOSING AND CHARACTERIZING CANNABINOID SIGNALING IN CROHN'S DISEASE” (CEDARS-SINAI MEDICAL CENTER, priority 2008, published 2011)
# Assays:
# [1] = test system: murine model of acute colitis (DSS, C3H/HeJ mice); experiment: Acute colitis model: dextran sodium sulfate (DSS) colitis; format: in vivo, mouse; conditions: 3.5% DSS; 1 mg/kg i.p. from two days before DSS, then every other day
# Source text: FIG. 11 (a) depicts, in accordance with an embodiment herein, the effect of CB2 agonist on murine model of acute colitis. Groups of 5 wildtype C3H/HeJ mice were challenged with either DSS 3.5% or acidified water and injected intraperitoneally with CB2 agonist (AM1241(AM)) or antagonist (SR144928 (SR)) or vehicle control (DMSO (D) for AM1241, or EtOH (E) for SR144928) and monitored for weight loss. Intestinal sections were scored histologically at day 10. (b) and (c.) depicts the comparison of DSS colitis in CB2−/− and WT mice, with (b) weight loss and (c) histologic scoring. This is representative of three or more independent experiments.
# 3.5% Dextran sulfate sodium (prepared in acidified drinking water) was obtained from MP Biomedicals, Inc (Solon, Ohio). Acidified drinking water of colitis-induced mice was replaced with DSS solution for a total of eight days. Controls were given standard acidified drinking water. All mice were sacrificed on day 12, at which time the DSS-treated mice had lost approximately 20% of their body weight. Experiments were performed in duplicate, with groups of 6 mice in each treatment arm. AM1241 (Sigma-Aldrich, MO, in DMSO, 1 mg/mL) was suspended in 250 μL sterile 0.9% saline and injected intraperitoneally (i.p.) at a dose of 1 mg/kg beginning two days prior to the administration of DSS (or acidified drinking water in the control group) and then every other day until the mice were euthanized. […]
# Colitis was quantified by both weight loss and histology of intestinal sections. […] Each section was then scored by one blinded pathologist using a standard experimental colitis scoring system.
# The effect of CB2-specific agonist in the setting of acute colitis was evaluated using dextran sodium sulfate (DSS), an ingested agent which induces acute, non-T cell mediated colitis (weight loss and bloody diarrhea) within three to five days. Mice were pre-treated with AM1241 or vehicle control, and then monitored for the level of acute colitis induced by DSS ingestion. […]
# [2] = test system: murine model of immune colitis (Rag1 −/− mice); experiment: Immune colitis model: transfer of Gαi2−/− T cells into Rag1 −/− mice; format: in vivo, mouse; conditions: i.p. every other day, vs DMSO vehicle
# CB2 receptor = experiment: CB2 agonist (AM1241) inhibition of forskolin-stimulated cAMP production in patient lymphoblastoid cell lines, ELISA; format: cell-based, human; conditions: 250 nM AM1241; 25 nM forskolin; Crohn's disease patient LCLs
# Protocol: FIG. 7 depicts, in accordance with an embodiment herein, CB2 receptor protein expression and function. Flow cytometry data derived from staining of 40 Crohn's disease patient lymphoblastoid cell lines with monoclonal CB2 receptor (IgG2A) was generated. LCLs from patients with Crohn's disease were grown in culture and plated 1×10^6 per well on a 96 well plate. These cells were then incubated for 20 minutes with 10 mM IBMX, a phosphodiesterase inhibitor, and washed. Cells were incubated in the presence of various concentrations of forskolin or media control with or without the addition of 250 nM AM1241. Samples were run in triplicate. […] Plates were frozen at −20 degrees and lysates assayed the following day for cAMP concentration using a commercial ELISA kit (R and D) and microwell ELISA plate reader.
# A CNR2 candidate gene case-control analysis was performed with 449 patients with Crohn's disease, 215 with ulcerative colitis, and 201 controls. […] EBV immortalized lymphoblastoid cell lines (LCLs) were analyzed for CB2 receptor by flow cytometry, and for CB2 receptor function (Gi-mediated adenylate cyclase inhibition) by CB2 agonist (AM1241) inhibition of forskolin-stimulated cAMP production, measured by ELISA.
# To assess the LCL response to CB2 specific agonist, intracellular cAMP was quantified using a standard ELISA kit (R and D Systems). […]
Compound,DSS colitis severity compared to vehicle control [1],weight loss compared to vehicle control ([2]; Rag1 −/− mice after Gαi2−/− T cell transfer),quantitative histologic scoring of intestinal inflammation compared to vehicle control ([2]; sacrificed 8 weeks after T cell transfer),inhibition of forskolin-stimulated adenylate cyclase-dependent cAMP response (CB2 receptor)
COc1ccc(C(=O)c2c(C)n(CCN3CCOCC3)c3cc(I)ccc23)cc1 [AM630],reduced DSS colitis severity,–,–,–
CN1CCCCC1Cn1cc(C(=O)c2cc([N+](=O)[O-])ccc2I)c2ccccc21 (stereo not drawn) [AM1241],significantly more severe,lost significantly less weight,dramatically reduced for inflammation,approximately 55%
SR144528,ameliorated DSS colitis,–,–,–
